Reference: patent publication US6593339B1, “Use of compounds as antibacterial agents” (AstraZeneca AB, priority 1999, dated 2003)

Test system: Helicobacter pylori Reference Strain NCTC 11 637
Experiment: Agar well diffusion test: inhibition zones around wells on blood agar plates
Assay type: cell-based
Details: 30 μl per 3 mm well, incubated four days
Description: Strain: Helicobacter pylori Reference Strain NCTC 11 637 (National Type Culture Collection, from Smittskyddsinstitutet in Solna, Sweden), an Antibiotic Sensitive Reference Strain
Helicobacter pylori was grown on blood agar plates, having a diameter of 90 mm. for three days under microaerophilic conditions at 37° C. The bacteria were suspended in PBS (phosphate buffer saline) to approximately 10^8 cfu/ml. Approximately 2 ml of the suspension was added to one agar plate and spread even on the surface of the agar. Overflow was removed with a syringe. Wells, like small holes, 3 mm in diameter, were made in the agarplate by removing agar. Three wells per plate were made. […] 30 μl of the solution was added to the wells. The plates were incubated for four days before they were checked for inhibition zones around the wells.

C[S+](C)[O-] [DMSO, Di-methyl-sulphate-oxide]
inhibition zone around each well (solution 20 μg/ml): No inhibition zones

COc1ccc2cc([C@H](C)C(=O)O)ccc2c1 [Naproxen]
zone of inhibition at 10000 µg/mL (Helicobacter pylori, NCTC11, 96 h, stock solution 10000 μg/ml, read-out: inhibition zone around each well): 16.6 mm
inhibition zone around each well (stock solution 100 μg/ml): No inhibition zones
inhibition zone around each well (stock solution 1000 μg/ml): No inhibition zones

CC(=O)N[C@H](C(=O)O)C(C)(C)SN=O [SNAP, S-nitroso-N-acetyl-penicillamin]
inhibition zone around each well (stock solution 10000 μg/ml): No inhibition zones

COc1ccc2cc(C(C)C(=O)OCCCCO[N+](=O)[O-])ccc2c1 (stereo not drawn) [formula Ia]
zone of inhibition at 100 µg/mL (Helicobacter pylori, NCTC11, 96 h, stock solution 100 μg/ml, read-out: inhibition zone around each well): 10.4 mm
zone of inhibition at 1000 µg/mL (Helicobacter pylori, NCTC11, 96 h, stock solution 1000 μg/ml, read-out: inhibition zone around each well): 13 mm
inhibition zone around each well (stock solution 10000 μg/ml): large
inhibition zone around each well (stock solution 100000 μg/ml): large
